From article PMC8402547, “In Vitro and In Vivo Analysis of Ochratoxin A-Derived Glucuronides and Mercapturic Acids as Biomarkers of Exposure” (Toxins, 2021)

Columns and labels:
Format in all cases: in vivo, male F344/N rats
[1] = 14-day rat study: 24 h urinary excretion of OTA and OTA-glucuronides, LC–MS/MS with and without β-glucuronidase hydrolysis; details: for Urinary excretion / Urinary excretion, fraction of the administered dose: 2 mg OTA/kg bw oral, 5 d/week; for Urinary excretion, fraction of the administered dose: 24 h urine
Experimental: (§1) 14-day study: Male F344 rats (170–190 g) were purchased from Charles-River Laboratories, Sulzfeld, Germany. Animals had free access to water and standard diet (Altromin) and were kept under standard conditions (12 h day/night cycle, temperature 21–23 °C, humidity 45–55%). Rats were transferred to metabolic cages (Tecniplast Metabolic Cage—Rats Over 300 g; Tecniplast, Italy) for collection of urine 3 days prior to dosing. Animals were administered OTA dissolved in corn oil by oral gavage at 0, 0.25, 0.5, 1.0 and 2.0 mg/kg bw for 2 weeks (5 days per week). Urine was collected every 12 h on day 1 of treatment and every 24 h thereafter on ice, aliquoted and stored at −20 °C until further analysis.
(§2) Duplicate analysis of OTA in urine samples with and without enzymatic hydrolysis allowed for indirect measurement of glucuronides, whereby an increase in the concentration of OTA in the samples incubated with enzyme compared to those without enzymatic treatment reflected the hydrolyzed glucuronides. Aliquots of rat urine (125 µL) were mixed with 0.1 M sodium acetate (104 µL; pH = 5). For analysis of the concentration of OTA without enzymatic hydrolysis, an aliquot (30 µL) of this solution was removed and mixed with 7 µL acetonitrile. The remaining solution (199 µL) was incubated with β-glucuronidase (1.65 µL; <100,000 units/mL) at 37 °C for 1 h. Hydrolysis was terminated by addition of ice-cold acetonitrile (50 µL) and centrifugation (15 min., 4 °C, 20,000× g). To 98 µL supernatant, 2 µL isotopically labeled ^13C20-OTA in acetonitrile (14-day study: 5 µg/mL; 90-day study: 1 µg/mL) was added as an internal standard. For analysis, 10 µL of each sample were injected into the LC–MS system and analyzed using the method described below. A calibration curve was prepared from solutions of OTA and the isotopically labeled ^13C20-OTA internal standard in acetonitrile and subsequent dilution with urine of a control animal.
(§3) LC–MS/MS analyses were performed on an Agilent 1100 series LC coupled to an API 2000/Q-Trap mass spectrometer (Applied Biosystems/MDS Sciex, Concord, Canada). Samples were injected into the LC–MS/MS system through an Agilent 1100 series autosampler. Separations were carried out on a ReproSil-Pur C18 AQ column (2 mm × 150 mm, 5 µm; Dr. Maisch; Ammerbuch, Germany). Gradient elution of OTA-derived metabolites was carried out with water + 0.1% formic acid (solvent A) and acetonitrile (solvent B). Initially, solvent A was held isocratic for 5 min at 100%, followed by a linear gradient to 95% B in 5 min. These conditions were held for further 5 min. Within 1 min, the gradient decreased linearly to 0% B and remained at initial conditions until the end of analysis (30 min). A flow rate of 0.2 mL/min was used. For each run, 10 µL of the respective sample were injected by the autosampler.
(§4) The API 2000/Q-Trap mass spectrometer was operated with a Turbo Ion Spray source in negative ion mode with a voltage of −4000 V. Spectral data were recorded with N2 as the heater gas at 450 °C and as the collision gas (CAD = −2) in multiple reaction monitoring mode (MRM).

[2] = 90-day rat study: 24 h urinary excretion of OTA and OTA-glucuronides, LC–MS/MS with and without β-glucuronidase hydrolysis; details: for Urinary excretion, fraction of the administered dose / Urinary excretion: 5 days/week; for Urinary excretion, fraction of the administered dose: 24 h urine
Experimental: (§5) 90-day study: Male F344/N rats (6–7 weeks old) were purchased from Harlan-Winkelmann, Borchen, Germany. Animals were housed in groups of 5 in Macrolon type-4 cages and allowed free access to pelleted standard rat maintenance diet (SSNIFF, Soest, Germany) and tap water. After a week of acclimatization, rats (n = 5/dose) were exposed to OTA dissolved in corn oil by oral gavage at doses of 0, 21, 70 or 210 µg/kg bw for 2, 4 or 13 weeks (5 days per week). For urine collection, animals were transferred into metabolic cages (Tecniplast Metabolic Cage—Rats Over 300 g; Tecniplast, Italy) 48 h prior to necropsy and fasted for 20 h but allowed free access to tap water. Urine was collected for 24 h on ice, aliquoted and stored at −20 °C until further analysis.
as §2, §3, §4

[3] = Direct LC–MS/MS analysis of OTA metabolites in urine of OTA-treated rats; details: OTA up to 2 mg/kg bw, negative ionization mode
Experimental: Archived urine samples from previous repeated dose oral toxicity studies on OTA in male F344/N rats were used. The studies were performed according to national animal welfare regulations after authorization by the local authorities (Regierung von Unterfranken, AZ 621-2531.01-9/98 and AZ 54-2531.01-59/05).
as §1, §5
Urine samples were diluted with acetonitrile (2:1), vortexed and cleared via centrifugation (4 °C, 15 min., 2000× g) to precipitate proteins. Of the resulting supernatant, 10 µL were injected into the LC–MS system and analyzed using the method described below.
as §3, §4
In addition to MRM, constant neutral loss of 129 amu in the negative ion mode based on the characteristic fragmentation pattern of mercapturic acids was used to screen for N-acetyl-cysteine conjugates of OTA. Furthermore, constant neutral loss of 176 amu in positive ion mode based on the fragmentation pattern of glucuronic acid conjugates was used to screen for OTA glucuronides.

[4] = 4 weeks treatment, OTA 210 μg/kg bw per day oral, n = 1

CC1Cc2c(Cl)cc(C(=O)NC(Cc3ccccc3)C(=O)OC3OC(C(=O)O)C(O)C(O)C3O)c(O)c2C(=O)O1 (centres unmarked) [OTA-Glucuronide]
Urinary excretion ([1]; animal 2, day 3 of treatment): 0.6 nmol/24 h
Urinary excretion, fraction of the administered dose ([1]; animal 2, day 3 of treatment): 0.1%
Urinary excretion ([1]; animal 2, day 5 of treatment): 7.0 nmol/24 h
Urinary excretion, fraction of the administered dose ([1]; animal 2, day 5 of treatment): 0.8%
Urinary excretion ([1]; animal 2, day 7 of treatment): 0.7 nmol/24 h
Urinary excretion, fraction of the administered dose ([1]; animal 2, day 7 of treatment): 0.1%
Urinary excretion ([1]; animal 2, day 9 of treatment): 12.2 nmol/24 h
Urinary excretion, fraction of the administered dose ([1]; animal 2, day 9 of treatment): 1.4%
Urinary excretion ([1]; animal 2, day 11 of treatment): 3.1 nmol/24 h
Urinary excretion, fraction of the administered dose ([1]; animal 2, day 11 of treatment): 0.4%
Urinary excretion ([1]; animal 2, day 13 of treatment): 3.4 nmol/24 h
Urinary excretion, fraction of the administered dose ([1]; animal 2, day 13 of treatment): 0.4%
Urinary excretion ([1]; animal 3, day 3 of treatment): 1.5 nmol/24 h
Urinary excretion, fraction of the administered dose ([1]; animal 3, day 3 of treatment): 0.2%
Urinary excretion ([1]; animal 3, day 5 of treatment): 1.6 nmol/24 h
Urinary excretion, fraction of the administered dose ([1]; animal 3, day 5 of treatment): 0.3%
Urinary excretion ([1]; animal 3, day 7 of treatment): 22.0 nmol/24 h
Urinary excretion, fraction of the administered dose ([1]; animal 3, day 7 of treatment): 2.4%
Urinary excretion ([1]; animal 3, day 9 of treatment): 16.9 nmol/24 h
Urinary excretion, fraction of the administered dose ([1]; animal 3, day 9 of treatment): 1.9%
Urinary excretion ([1]; animal 3, day 11 of treatment): 22.5 nmol/24 h
Urinary excretion, fraction of the administered dose ([1]; animal 3, day 11 of treatment): 2.5%
Urinary excretion ([1]; animal 3, day 13 of treatment): 6.384 nmol/24 h
Urinary excretion, fraction of the administered dose ([1]; animal 3, day 13 of treatment): 0.7%
24 h urinary excretion, % of the daily administered dose ([1]; range over the course of the study, OTA 2 mg/kg bw for 2 weeks (5 days/week)): 0.1–2.5%
Urinary excretion, fraction of the administered dose ([2]; 2 weeks treatment, OTA 21 μg/kg bw per day oral): 0.8%
Urinary excretion ([2]; 2 weeks treatment, OTA 21 μg/kg bw per day oral, mean ± SD): 0.10 ± 0.02 nmol/24 h
Urinary excretion, fraction of the administered dose ([2]; 2 weeks treatment, OTA 70 μg/kg bw per day oral): 0.6%
Urinary excretion ([2]; 2 weeks treatment, OTA 70 μg/kg bw per day oral, mean ± SD): 0.23 ± 0.08 nmol/24 h
Urinary excretion, fraction of the administered dose ([2]; 2 weeks treatment, OTA 210 μg/kg bw per day oral): 0.4%
Urinary excretion ([2]; 2 weeks treatment, OTA 210 μg/kg bw per day oral, mean ± SD): 0.48 ± 0.36 nmol/24 h
Urinary excretion, fraction of the administered dose ([2]; 4 weeks treatment, OTA 21 μg/kg bw per day oral): 0.7%
Urinary excretion ([2]; 4 weeks treatment, OTA 21 μg/kg bw per day oral, mean ± SD): 0.08 ± 0.09 nmol/24 h
Urinary excretion, fraction of the administered dose ([2]; 4 weeks treatment, OTA 70 μg/kg bw per day oral): 1.5%
Urinary excretion ([2]; 4 weeks treatment, OTA 70 μg/kg bw per day oral, mean ± SD): 0.61 ± 0.67 nmol/24 h
Urinary excretion, fraction of the administered dose [2, 4]: 0.2%
Urinary excretion [2, 4]: 0.21 nmol/24 h
Urinary excretion, fraction of the administered dose ([2]; 13 weeks treatment, OTA 21 μg/kg bw per day oral): 0.2%
Urinary excretion ([2]; 13 weeks treatment, OTA 21 μg/kg bw per day oral, mean ± SD): 0.03 ± 0.00 nmol/24 h
Urinary excretion, fraction of the administered dose ([2]; 13 weeks treatment, OTA 70 μg/kg bw per day oral): 1.7%
Urinary excretion ([2]; 13 weeks treatment, OTA 70 μg/kg bw per day oral, mean ± SD): 0.85 ± 0.74 nmol/24 h
Urinary excretion, fraction of the administered dose ([2]; 13 weeks treatment, OTA 210 μg/kg bw per day oral): 1.1%
Urinary excretion ([2]; 13 weeks treatment, OTA 210 μg/kg bw per day oral, mean ± SD): 1.72 ± 1.53 nmol/24 h
Relationship between OTA dose and urinary excretion (Pearson correlation) ([2]; OTA 0, 21, 70, 210 μg/kg bw, 2, 4 and 13 weeks): linear relationship
Excretion in male rat urine, % of the orally administered dose ([2]; male rats, indirect analysis, summary statement in discussion): less than 2%
Fraction of the administered dose excreted in urine ([2]; range over 90-day study, OTA 21, 70 and 210 µg/kg (5 days/week)): 0.2 to 1.7%
Detection in urine of OTA-treated rats by direct LC–MS/MS (MRM) [3]: failed
